{"source": "patent US8722652B2", "about": "“Acute treatment of social phobia” (Pherin Pharmaceuticals, Inc., priority 2005, dated 2014)", "format_in_all_cases": "in vivo, human", "key": {"[1]": {"tested_on": "patients diagnosed with generalized anxiety disorder", "test": "Acute anxiety symptom scores (HAM-A, COVI, CGI) after delivery to the vomeronasal organ of patients with generalized anxiety disorder"}, "vomeronasal receptors": {"tested_on": "vomeronasal receptors", "test": "Electrovomerogram dose-response (mass receptor potential of the vomeronasal receptors), local aerosol delivery with Multifunctional Miniprobe", "protocol": "The effective amount of androsta-4,16-dien-3β-ol administered was determined in dose-response studies where the amplitude of the mass receptor potential of the vomeronasal receptors (electrogram of the vomeronasal organ or electrovomerogram) was recorded from volunteers diagnosed with generalized anxiety disorder (GAD), while locally delivering different concentrations of the steroid in aerosol form, using a Multifunctional Miniprobe® described in U.S. Pat. No. 5,303,703. This electrovomerogram allows precise measuring of the concentration dependent effect of locally delivered androsta-4,16-dien-3β-ol to vomeronasal receptors, and calculation of the half-maximal concentration, the Effective Concentration 50 (EC50).\nAndrosta-4,16-dien-3β-ol was delivered directly to the vomeronasal organ pit of anxious patients using the Multifunctional Miniprobe®, consisting of a concentric arrangement of Teflon® tubes having an inner non-polarized silver wire recording-electrode. […] The electrovomerogram recorded with the surface silver-wire electrode was electronically amplified and continuously monitored in a computer and a dose-response curve was obtained by plotting the peak amplitude of electrovomerograms produced by several different amounts of androsta-4,16-dien-3β-ol (ranging from 0 (control) to 1000 picograms). […]"}, "[2]": {"tested_on": "patients diagnosed with generalized social phobia", "test": "Phase-2 randomized double-blind study: public speaking and social interaction challenges in social phobia patients, intranasal spray", "excerpt": "A Phase-2 Randomized, Double-blind, Crossover Study of the Use of Single Doses of [3β]-Androsta-4,16-dien-3-ol for Management of the Symptoms of Social phobia\nThe following describes a study of the effects of the vomeropherin [3β]-androsta-4,16-dien-3-ol on human female patients suffering from social phobia.\nThe study comprised 40 patients with clinical diagnosis of Social Phobia. Each patient was randomly assigned to one of the following double-blind treatment groups: 800 nanogram [3β]-Androsta-4,16-dien-3-ol or placebo delivered intranasally in spray form. Each patient participated in the Treatment Phase as follows.\nFirst Visit: the patient visited the study center and the following activities were conducted during this visit: Pre-Challenge: After arrival at the study center, the patient completed self-reports of their usual anxiety symptoms. Public Speaking Challenge: The patient was administered a spray (50 microliters) of placebo to each nostril, and the procedures for the Public Speaking Challenge were then explained to the patient. The patient was given four minutes to prepare one of several topics for a four-minute speech, without notes, in front of an audience of several people who evaluated the speech and videotaped it. Immediately after completing the preparation period, the patient completed self-reports of their anticipatory anxiety and the Investigator then rated the patient's anticipatory anxiety. The patient gave their speech. Immediately after completing the speech, the patient completed self-reports of anxiety experienced during the speech. The Investigator then rated the anxiety experienced by the patient. Social Interaction Challenge: Approximately one hour after completion of the Public Speaking Challenge, the patient was administered another dose of placebo in each nostril, and the procedures for a Social Interaction Challenge appropriate for one of the patient's most-feared social interaction situations were then described to the patient. Then, the patient completed self-reports of their anticipatory anxiety and the Investigator rated the patient's anticipatory anxiety. Then, the patient participated in a four-minute mock social interaction while being observed by several raters and videotaped. Immediately after completing the social interaction, the patient completed self-reports of anxiety experienced during the interaction. Then, the Investigator rated the anxiety experienced by the patient. Those patients that during the first visit responded to placebo during the public speaking or the social interaction challenge were terminated from the study at that time. Patients non-responding to placebo during the first visit participated in a second visit where they were randomly dosed again with placebo, or with 800 nanograms androsta-4,16-dien-3β-ol per nostril (total dose=1,600 nanograms) delivered in spray form. Each patient was challenged and also the anxiety symptoms were scores using the same procedure performed during first visit.\nThe mean score obtained during the first visit (baseline scores) for each, anticipatory public speaking, performance public speaking, anticipatory social interaction and performance social interaction, was subtracted from the mean score (same parameter) obtained during the second visit. The result is a measure of symptom improvement."}, "[3]": {"details": "1 nanogram to the vomeronasal organ, GAD patients n = 20"}, "[4]": {"details": "1600 nanogram intranasally, n = 40, Mean Baseline Score − Mean Score After Treatment"}}, "data": [{"compound": "C[C@@]12C=CC[C@H]1[C@@H]1CCC3=C[C@@H](O)CC[C@]3(C)[C@H]1CC2", "note": "[androsta-4,16-dien-3β-ol]", "values": [{"measurement": "Mean acute symptom improvement, CGI (Mean Baseline Score − Mean Score after Treatment)", "setting": "[1]; [3]", "result": 1.17}, {"measurement": "Mean acute symptom improvement, COVI (Mean Baseline Score − Mean Score after Treatment)", "setting": "[1]; [3]", "result": 2.8}, {"measurement": "Mean acute symptom improvement, HAM-A (Mean Baseline Score − Mean Score after Treatment)", "setting": "[1]; [3]", "result": 10.6}, {"measurement": "Acute anxiety symptoms scores (HAM-A, COVI, CGI)", "setting": "[1]; concentrations above the EC50, 20 human female GAD patients, effect lasting 30 minutes after intranasal administration", "result": "significantly reduced"}, {"measurement": "EC50 (half-maximal concentration, electrovomerogram peak amplitude)", "setting": "vomeronasal receptors; delivered directly to vomeronasal organ pit, aerosol from propylene glycol, GAD volunteers", "result": 0.5, "unit": "nanograms"}, {"measurement": "KD", "setting": "vomeronasal receptors; set equal to EC50 (linear receptor occupancy-response, model of A. J. Clark)", "result": 0.5, "unit": "ng"}, {"measurement": "Anticipatory and Performance anxiety scores", "setting": "[2]; 5 minutes after administration, Social Interaction and Public Speaking", "result": "notably and significantly decreased"}, {"measurement": "Mean Symptom Improvement, Anticipatory Public Speaking Anxiety", "setting": "[2]; [4]", "result": 10.417}, {"measurement": "Mean Symptom Improvement, Anticipatory Social Interaction Anxiety", "setting": "[2]; [4]", "result": 12.166}, {"measurement": "Mean Symptom Improvement, Performance Public Speaking Anxiety", "setting": "[2]; [4]", "result": 26.294}, {"measurement": "Mean Symptom Improvement, Performance Social Interaction Anxiety", "setting": "[2]; [4]", "result": 14.197}, {"measurement": "Symptom improvement versus placebo", "setting": "[2]; second visit versus first-visit baseline scores", "result": "much greater and significant symptom improvement than placebo"}]}]}
